Measured values taken from ChEMBL document CHEMBL3507680, “University of Dundee, Gates Library screen for HepG2 cell viability”.

Assay: Human HepG2 cell viability assay in 384 well format
Format: toxicity, cell-based
Design: dose 125 nL, time 70.5 hour; concentration not given beside the values
Details: HepG2 cells, read-out: Inhibition

Compound | cytotoxicity at 70.5 h
CCc1nc(C2CCCN(C(=O)CC3CCOCC3)C2)no1 (configuration not stated) | -8.83%
CS(=O)(=O)NC1CCCN(C(=O)NCc2ccoc2)C1 (configuration not stated) | 0.0228%
CS(=O)(=O)NC1CCCN(C(=O)NCc2cccc(F)c2)C1 (configuration not stated) | -4.51%
Cc1ccc(C(CNC(=O)Nc2cn[nH]c2)N2CCOCC2)o1 (configuration not stated) | -1.26%
CS(=O)(=O)NC1CCN(C(=O)NCc2cccnc2)CC1 | 2.6%
COc1ccnc(N2CCN(C(=O)Cc3ccsc3)CC2)n1 | -8.71%
Cc1nnc(C2Cc3ccccc3CN2Cc2c(C)noc2C)o1 (configuration not stated) | -1.11%
CCc1nc(C2CCCN(C(=O)NC3CC3)C2)no1 (configuration not stated) | -0.741%
Cc1ncc(C(=O)NC2CCc3nccn3C2)c(C(C)C)n1 (configuration not stated) | -3.83%
CCc1n[nH]c(C2CN(C(=O)c3ccnc(C4CC4)n3)CCO2)n1 (configuration not stated) | -5.63%
COc1ccc(CC(=O)N2CCCC2Cn2cc(C)cn2)cc1OC (configuration not stated) | -0.349%
O=C(CCc1ccccn1)N1CCCN(C(=O)CC2CCCC2)CC1 | 4.27%
CCn1cc(CN2CCCN(C(=O)c3ccccc3C)CC2)cn1 | -2.18%
Cc1nn(C)c(Cl)c1C1CCCN1C(=O)c1ccnc(N(C)C)c1 (configuration not stated) | -2.23%
Cc1nc(CN(C)C2CCN(CCc3ccc4c(c3)CCO4)C2)no1 (configuration not stated) | 1.48%
Cc1nc(CN(C)C2CCN(Cc3cccc(F)c3)C2)no1 (configuration not stated) | 1.26%
CCc1noc(CNC2CCCN(Cc3noc(C4CC4)n3)C2)n1 (configuration not stated) | -5.98%
CNc1cc2c(nn1)CCN(C(=O)c1coc(Br)c1)C2 | 17.6%
CCc1noc(C)c1C(=O)N1CCCN(Cc2cscn2)CC1 | -10.2%
CCn1cc(CN2CCCN(C(=O)c3ccccc3OC)CC2)cn1 | -15.6%
CCn1cc(CN2CCCN(C(=O)c3ccc(C)o3)CC2)cn1 | 20.7%
O=C(NCCC(=O)N1CCCc2ccccc21)c1ccc(F)cc1F | -14.2%
Cc1nc(CN(C)C2CCN(Cc3cccc4c3OCCO4)C2)no1 (configuration not stated) | 28.1%
COc1c(CNCC(O)c2cccc(F)c2)c(C)nn1C (configuration not stated) | -9.63%

Compound | cytotoxicity at 70.5 h
CC(C)C(=O)NCc1ccc(N(C)C)cc1 | -4.78%
CN(C)c1cc(CNC(=O)c2ccc(O)nc2)ccn1 | 14.5%
Cn1cnnc1C1CCCN(C(=O)c2ccccn2)C1 (configuration not stated) | 16%
COc1c(CNCC(O)c2ccccc2)c(C(C)C)nn1C (configuration not stated) | -9.73%
COc1c(CNCC(O)c2ccc(C)cc2)c(C(C)C)nn1C (configuration not stated) | -3.08%
CCn1cc(CN2CCCN(C(=O)c3ccoc3)CC2)cn1 | 9.04%
CCn1cc(CN2CCCN(C(=O)c3cccn3C)CC2)cn1 | -7.92%
COc1c(C2CCCN2C(=O)c2ccc(O)nc2)c(C)nn1C (configuration not stated) | -8.59%
COc1c(C2CCCN2C(=O)c2ccc(N(C)C)nn2)c(C)nn1C (configuration not stated) | -8.95%
O=C(NCC(=O)N1CCCc2ccccc21)c1c(O)cc(F)cc1F | 0.334%
CC(C)Cn1[nH]cc/c1=N\C(=O)CN1CCOC(Cn2cccn2)C1 (configuration not stated) | 21.5%
Cc1ccc(CN2CCCN(Cc3cscn3)CC2)cc1 | 3.58%
N#CCc1ccc(OCC(=O)N2CCCC(n3cccn3)C2)cc1 (configuration not stated) | -10.5%
O=C(c1cccc2c1OCCO2)N1CCCC1Cn1cccn1 (configuration not stated) | -8.07%
Cc1cc(NC(=O)CN2CCOC(Cn3nc(C)cc3C)C2)n(C)n1 (configuration not stated) | -8.28%
COc1ccc(CCCC(=O)N2CCCC(n3cccn3)C2)cc1 (configuration not stated) | 14.5%
COc1c(C)cnc(CN(C)C(=O)c2ccccc2F)c1C | -4.79%
Cn1cnnc1C1CCCN(C(=O)CCc2ccc3c(c2)OCO3)C1 (configuration not stated) | 15.2%
COc1ccc(NC(=O)N2CCCCCC2c2ccncc2)cn1 (configuration not stated) | -6.87%
COc1ccc(NC(=O)N2CCCC2c2ccncc2)cn1 (configuration not stated) | -11.6%
N#Cc1cccc(CN2CCN(Cc3cscn3)CC2)c1 | -10%
Cc1noc2ncc(C(=O)N3CCCC(n4cccn4)C3)cc12 (configuration not stated) | -2.98%
N#Cc1ccc(OCC(=O)N2CCCC(n3cccn3)C2)cc1 (configuration not stated) | -4.85%
Cc1nnc(NC(=O)CN2CCOC(Cn3cccn3)C2)s1 (configuration not stated) | -6.17%

Compound | cytotoxicity at 70.5 h
O=C(c1cccc2c1OCCO2)N1CCCCC1Cn1cccn1 (configuration not stated) | -6.1%
Cc1cnn(CC2CCCCN2C(=O)c2cccc3c2OCO3)c1 (configuration not stated) | -8.6%
CC(C)c1nc2n(n1)CC(NCc1nc(-c3ccccn3)no1)CC2 (configuration not stated) | -7.49%
CC(C)c1nc2n(n1)CC(NCc1nc(-c3ccsc3)no1)CC2 (configuration not stated) | -11.5%
Cc1cc(C(=O)N2CCCC(n3nc(C)cc3C)C2)on1 (configuration not stated) | -10.1%
Cc1cc(C)n(C2CCCN(C(=O)c3c(C)noc3C)C2)n1 (configuration not stated) | -7.4%
Cc1n[nH]c(C2CN(Cc3nnc(C4CC4)n3C)CCO2)n1 (configuration not stated) | -6.69%
CCc1nc(CN2CCCN(CC(=O)Nc3cccnc3)CC2)no1 | 8.11%
Cc1cc(CN(C)C2CCCN(Cc3noc(C)n3)C2)on1 (configuration not stated) | 17.4%
COC1CCN(Cc2csc(C(C)C)n2)CC1 | -5.9%
CC(C)c1nc(CN2CCN(Cc3ccccn3)CC2)cs1 | -3.18%
CC(C)c1ccsc1C(=O)N1CCCN(Cc2cscn2)CC1 | 15.1%
Cc1cnn(CCNCC(=O)NCC2(c3ccccc3)CCC2)c1 | 22.8%
CCn1c(C)nnc1CN(C)C1CCN(CCc2ccncc2)C1 (configuration not stated) | -3.16%
O=C(NCCNc1ccc(C(F)(F)F)cn1)c1cncc(Br)c1 | -12.5%
CCn1cnnc1CNC(=O)N1CCN(Cc2ccccc2)CC1 | -1.29%
CC(CNC(=O)Nc1cn[nH]c1)N1CCOCC1 (configuration not stated) | -12.1%
Cc1nn(C)c(N2CCOCC2)c1CNCc1ccnc(N(C)C)c1 | -5.34%
CS(=O)(=O)NC1CCCN(C(=O)NCc2cccnc2)C1 (configuration not stated) | -0.126%
Cc1nn(C)c(N2CCOCC2)c1CNCc1ccc(Cl)s1 | -2.69%
COc1ccnc(N2CCN(C(=O)Cc3ccc(C#N)cc3)CC2)n1 | -0.995%
Cc1nc2c(c(C)c1CC(=O)NCc1cccc(C#N)c1)c(=O)[nH]n2C | -2.99%
Cc1nc(C)n(CC2CCCN(Cc3ccc(C(N)=O)cc3)C2)n1 (configuration not stated) | -4.6%
COc1ccccc1OCCC(=O)N1CCCC1Cn1cc(C)cn1 (configuration not stated) | -6.74%

Compound | cytotoxicity at 70.5 h
O=C(CCc1nccs1)N1CCN(c2ncccn2)CC1 | -1.61%
Cn1cnnc1C1CCCN(C(=O)c2cnc3ccccc3n2)C1 (configuration not stated) | -1.48%
COc1c(C2CCCN2C(=O)c2ccc3cc[nH]c3c2)c(C)nn1C (configuration not stated) | -2.48%
COc1c(C2CCCN2C(=O)c2cccc(C(N)=O)c2)c(C)nn1C (configuration not stated) | 18.9%
COc1c(C2CCCN2C(=O)c2ccnc(N(C)C)c2)c(C)nn1C (configuration not stated) | -6.74%
Cc1ncsc1C(=O)N1CCCN(Cc2cscn2)CC1 | -12.1%
CC1CN(C(=O)CN(Cc2ccccc2Br)C2CC2)CCO1 (configuration not stated) | -0.289%
Cc1cc(CN2CCN(C(=O)c3sccc3C(C)C)CC2)no1 | -0.556%
c1ccc2oc(CCCN3CCOC(Cn4cccn4)C3)nc2c1 (configuration not stated) | 0.524%
COc1c(CNCC(c2cccc(F)c2)N(C)C)c(C(C)C)nn1C (configuration not stated) | 12.7%
CS(=O)(=O)c1ccc(CNC2CCCN(c3cccnn3)C2)cc1 (configuration not stated) | -6.92%
OCC1CCCN1c1cc(N2CCC(OC3CCCC3)CC2)ncn1 (configuration not stated) | -3.18%
Cc1noc(C(C)C)c1C(=O)N1CCCN(Cc2cscn2)CC1 | 1.02%
Cc1cccc(C)c1NC(=O)CCNC(=O)c1ccoc1 | -3.89%
Cc1cccc(C)c1OCCNC(=O)NC(C)c1nncn1C (configuration not stated) | 41.6%
Cc1ccoc1C(=O)NCC(Cc1ccc(F)cc1)C(N)=O (configuration not stated) | -3.51%
CCOc1ccc(CC(CNC(=O)c2ccoc2)C(N)=O)cc1 (configuration not stated) | 49.1%
CCOc1ccc(CC(CNC(=O)c2occc2C)C(N)=O)cc1 (configuration not stated) | 6.46%
NC(=O)c1ccc(OCC(=O)N2CCCC(n3cccn3)C2)cc1 (configuration not stated) | -12%
Cc1oc(C)c(C(=O)N2CCCN(Cc3cscn3)CC2)c1C | 5.51%
Cc1cc(C)n(C2CCCN(C(=O)c3cnc4onc(C)c4c3)C2)n1 (configuration not stated) | -7.95%
Cc1nc(C)n(C2CCCN(C(=O)c3cc4ccccc4n3C)C2)n1 (configuration not stated) | -1.56%
CC(C)c1nnc2n1CCN(C(=O)c1ccc(CN(C)C)cc1)C2 | 3.04%
CC(C)c1nccn1C1CCCN(C(=O)c2ccnc(N(C)C)c2)C1 (configuration not stated) | -2.47%

Compound | cytotoxicity at 70.5 h
c1cnnc(N2CCCC(NCc3ccc(-n4ccnc4)cc3)C2)c1 (configuration not stated) | -10.5%
COc1ccccc1C(=O)N(C)Cc1ncc(C)c(OC)c1C | -6.37%
CCn1c(C)cc(C(=O)N2CCCC(c3nc(C)no3)C2)c1C (configuration not stated) | -3.95%
CN(CC1CN(Cc2cn3ccsc3n2)CCO1)c1cccnn1 (configuration not stated) | -2.29%
CCc1[nH]ncc1C(=O)N1CCCN(Cc2cnn(C)c2)CC1 | -10.9%
CNC(=O)CN1CCC(NC(=O)N(C)Cc2cc(C)on2)CC1 | -10.8%
CN(Cc1cccs1)C(=O)CS(=O)(=O)Cc1ccc(Cl)c(Cl)c1 | 26.3%
CC(OCC(F)(F)F)C(=O)Nc1ccc(-n2cncn2)nc1 (configuration not stated) | -12.6%
CCc1nnc(CN2CCN(C(=O)c3ccccn3)CC2)o1 | -21.8%
CN(Cc1ccccc1F)C(=O)CS(=O)(=O)Cc1ccc(Cl)c(Cl)c1 | -19%
CNS(=O)(=O)c1ccc(CNC(=O)NCC2CCOC2)cc1 (configuration not stated) | -31.2%
Cc1cc(CN(C)C(=O)NC2CCS(=O)(=O)C2)no1 (configuration not stated) | -15.8%
CC(C)C(=O)NCc1cccc(N2CCCCC2=O)c1 | -12.2%
Cn1cnnc1C1CCCN(C(=O)NCCc2ccccc2F)C1 (configuration not stated) | -11.6%
c1coc(-c2noc(CN3CC(n4cccn4)C3)n2)c1 | -7.3%
CCn1cnnc1C1CCN(C(=O)COc2ccccc2)CC1 | -9.36%
Cc1oc(-c2ccco2)nc1CC(=O)N1CCN(C2CCC2)CC1 | -1.12%
Cc1noc(C2CCCN(C(=O)c3ccc(Br)cc3F)C2)n1 (configuration not stated) | -7.35%
Cc1nc(C(=O)N2CCC(Nc3cccnn3)CC2)cs1 | 28.6%
Cc1nnc(N2CCC(CN(C)C(C)C)CC2)c(C#N)c1C | 20.7%
CC(C)c1nc(CN2CCCCC2)cs1 | -4.92%
